Like-named read-outs stand apart in the source and are kept apart here.
How the values were obtained:
Assay type in all cases: in vivo, rat
CY450P2E1 = assay: LPS-induced ALI in rats: real-time PCR of CY450P2E1 gene in lung; conditions: lung tissue
Experimental: (§1) Thirty-five free pathogenic Sprague–Dawley male albino rats (100–120 g) were obtained from the Egyptian Drug Authority (EDA) animal house. Randomly, the animals were divided into seven groups, (each 5 rats) as follows: Group I: normal control group, Group II: positive control group on the 7th day only received LPS (Lipopolysaccharides) at a dose of 10 mg/kg bw. i.p. suspended in sterile saline solution 0.9% (Ijinu et al. [2022]), Group III dexamethasone positive control (5 mg/kg i.p.) (Murillo-Cuesta et al. [2023]) for 7 days followed by LPS single inflammatory dose model (10 mg/kg b. w i.p.). On the 7th day, 1 h after the last dexamethasone dose. […]
(§2) Primers were utilized in a 25- µl reaction containing 12.5 µl of the 2 × QuantiTect SYBR Green PCR Master Mix (StrateGene® MX3005P, Qiagen, Germany), 0.25 µl of Revert Aid reverse transcriptase (200 U/µL) (Thermo Fisher, Germany), 0.5 µl of each primer of 20 pmol concentration, 8.25 µl of water, and 3 µl of RNA template. […] Amplification curves and Ct values were determined by the Strata gene MX3005P software, version 3 (Agilent, California, USA). […]

GSH = assay: LPS-induced ALI in rats: pulmonary GSH; conditions: lung tissue
Experimental: (§3) Thirty-five free pathogenic Sprague–Dawley male albino rats (100–120 g) were obtained from the Egyptian Drug Authority (EDA) animal house. Randomly, the animals were divided into seven groups, (each 5 rats) as follows: Group I: normal control group, Group II: positive control group on the 7th day only received LPS (Lipopolysaccharides) at a dose of 10 mg/kg bw. i.p. suspended in sterile saline solution 0.9% (Ijinu et al. [2022]), Group III dexamethasone positive control (5 mg/kg i.p.) (Murillo-Cuesta et al. [2023]) for 7 days followed by LPS single inflammatory dose model (10 mg/kg b. w i.p.). On the 7th day, 1 h after the last dexamethasone dose. […] All animals were anesthetized to obtain blood in heparinized capillary tubes for pro-inflammatory cytokines (TNF-α, IL-1, IL-6, and MPO) ELISA examination in addition to lung tissues for determination of antioxidant enzymes (SOD, Catalase, GSH and MDA), real-time PCR (p38.MAPK14 and CY450P2E1), western blot (NF-κB p65), histological lung tissue scoring and immunohistochemistry examination (TGF-β1).

MDA = assay: LPS-induced ALI in rats: pulmonary MDA; conditions: lung tissue
Experimental: as §3

Catalase = assay: LPS-induced ALI in rats: pulmonary catalase; conditions: lung tissue
Experimental: as §3

TNF-α = conditions: ELISA, rats
Experimental: as §3
(§4) Rat TNF-α (Catalog No: MBS2507393 96 T/48 T/24 T), IL-6 (Catalog No: MBS355410), IL-1β (Catalog no. MBS825017), MPO (Catalog No. MBS2019590) ELISA kits were obtained from MyBiosource, San Diego, USA.

MPO = conditions: ELISA, rats
Experimental: as §3, §4

SOD = assay: LPS-induced ALI in rats: pulmonary SOD; conditions: lung tissue
Experimental: as §3

lung tissues = assay: LPS-induced ALI in rats: H&E histopathology and histological scoring of pulmonary inflammation; conditions: for Proportion of airspace area: airspace area / total area of one view, 400×; for Incidence of congestion / Incidence of hemorrhage / Severity of neutrophil infiltration: lung H&E
Experimental: as §3
Lung tissues were collected and fixed in 10% neutral buffered formaldehyde for 24 h to stabilize and fix tissue proteins. Dehydration, clearing, and paraffin infiltration and embedding were performed, and then wax blocks were sectioned by microtome into 5 µ sections and stained with Hematoxylin and Eosin Stain. Hematoxylin staining was performed according Ehrlich's Hematoxylin (Ehrlich [1886]) and eosin staining was done according to Avwioro ([2011]). Anti-Transforming Growth Factor-β (TGF-β) antibody immunohistochemistry stain (Arigo Biolaboratories, ARG 56429) was also performed, and Immuno-histochemical staining was performed according to Bajracharya et al. ([2017]). The same position of the lungs in five […] was observed through a microscope, and the histological lesion of the lung was evaluated through the incidence of congestion, inflammation, and hemorrhage, severity scoring of neutrophil infiltrates, and proportion of airspace areas. The level of severity was judged from – to +++, representing none to severe. The airspace proportion is the ratio of the airspace area and the total area of one view under 400 × magnifications (Wang et al. [2018]). According to Xue et al. ([2011]) & Ai-Li Huang et al. ([2014]): the semi-quantitative criterion for TGF-β1 staining intensity was estimated using a four-tiered scoring system: negative (−), no staining at all; weak (+), weak staining regardless of positive cell percentages or moderate staining of ≤ 30% of cells; moderate (++), moderate staining of > 30% of cells or strong staining of ≤ 50% of cells; strong (+++), strong staining of > 50% of cells. Low expression of TGF-β1 was defined as (-) or ( +), and High expression was defined as (++) or (+++).

P38.MAPK14 = assay: LPS-induced ALI in rats: real-time PCR of P38 MAPK gene in lung; conditions: lung tissue
Experimental: as §1, §2

IL-6 = assay: LPS-induced ALI in rats: IL-6 ELISA
Experimental: as §3, §4

NF-κB p65 = conditions: western blot, lung, relative band intensity (ratio of AU to internal control), rats
Experimental: as §1
Samples were separated on a polyacrylamide gel; the procedure was abbreviated as SDS-PAGE, or Sodium Dodecyl Sulfate Polyacrylamide Gel Electrophoresis, a standard technique for separating proteins according to their molecular weight. […] Imaging and data analysis quantitation: The chemiluminescent substrate (Clarity TM Western ECL substrate, Bio-Rad cat# 170-5060) was applied to the blot according to the manufacturer’s recommendation.

IL-1β = assay: LPS-induced ALI in rats: IL-1β ELISA
Experimental: as §3, §4

TGF-β1 = conditions: rats
Experimental: as §1
Lung tissues were collected and fixed in 10% neutral buffered formaldehyde for 24 h to stabilize and fix tissue proteins. […] The same position of the lungs in five mice was observed through a microscope, and the histological lesion of the lung was evaluated through the incidence of congestion, inflammation, and hemorrhage, severity scoring of neutrophil infiltrates, and proportion of airspace areas. […]

[1] = dexamethasone 5 mg/kg i.p. 7 days + LPS 10 mg/kg i.p.

With `C[C@@H]1C[C@H]2[C@@H]3CCC4=CC(=O)C=C[C@]4(C)[C@@]3(F)[C@@H](O)C[C@]2(C)[C@@]1(O)C(=O)CO` [Dexamethasone, dexamethasone] the “CY450P2E1 Fold change” value (CY450P2E1; [1]) was 5.345 ± 0.3346^***b Fold change, the GSH (GSH; [1]) was 1.174 ± 0.1565^**b and the MDA (MDA; [1]) was 20.69 ± 2.49^***b. For the same molecule, the Catalase (Catalase; [1]) was 0.098 ± 0.006^*b, the TNF-α (TNF-α; [1]) was 91.27 ± 1.940^***b and the MPO (MPO; [1]) was 45.50 ± 2.926^***b. The SOD (SOD; [1]) was 0.8047 ± 0.041^*b, the “Proportion of airspace area” value (lung tissues; [1]) was 4.89% and the “H&E histological examination of lung tissue (finding in words)” value (lung tissues; [1]) was “collapsed alveoli in some areas, while other areas showed emphysema”. For the same molecule, the Incidence of congestion (lung tissues; [1]) was 4/8, the Incidence of hemorrhage (lung tissues; [1]) was 1/8 and the “Severity of neutrophil infiltration” value (lung tissues; [1]) was “++”. The “P38 MAPK Fold change” value (P38.MAPK14; [1]) was 3.585 ± 0.2314^***b Fold change, the IL-6 (IL-6; [1]) was 58.87 ± 1.38^***b and the Nf-ĸB (NF-κB p65; [1]) was 3.907 ± 0.048. For the same molecule, the IL-β1 (IL-1β; [1]) was 48.77 ± 1.995^***b and the “TGF-β1 immunohistochemical expression in lung” value (TGF-β1; [1]) was “+ +”.
With Lipopolysaccharide [LPS] the “CY450P2E1 Fold change” value (CY450P2E1; LPS 10 mg/kg i.p. only) was 12.68 ± 0.2038^***a Fold change, the GSH (GSH; LPS 10 mg/kg i.p. only) was 0.4737 ± 0.038^*a and the MDA (MDA; LPS 10 mg/kg i.p. only) was 42.15 ± 0.800^***a. For the same molecule, the Catalase (Catalase; LPS 10 mg/kg i.p. only) was 0.2153 ± 0.001^*a, the TNF-α (TNF-α; LPS 10 mg/kg i.p. only) was 157.0 ± 4.917^***a and the MPO (MPO; LPS 10 mg/kg i.p. only) was 102.4 ± 3.496^***a. For the same molecule, the SOD (SOD; LPS 10 mg/kg i.p. only) was 0.4713 ± 0.041^*a, the “H&E histological examination of lung tissue (finding in words)” value (lung tissues; LPS 10 mg/kg i.p. only) was “collapsed alveoli in some areas, while other areas showed emphysema” and the “Proportion of airspace area” value (lung tissues; LPS 10 mg/kg i.p. only) was 2.66%. The Incidence of congestion (lung tissues; LPS 10 mg/kg i.p. only) was 5/8, the Incidence of hemorrhage (lung tissues; LPS 10 mg/kg i.p. only) was 2/8 and the “Severity of neutrophil infiltration” value (lung tissues; LPS 10 mg/kg i.p. only) was “++++”. For the same molecule, the “P38 MAPK Fold change” value (P38.MAPK14; LPS 10 mg/kg i.p. only) was 9.682 ± 0.1741^***a Fold change, the IL-6 (IL-6; LPS 10 mg/kg i.p. only) was 126.1 ± 3.75^***a and the Nf-ĸB (NF-κB p65; LPS 10 mg/kg i.p. only) was 3.973 ± 0.014^***a. The IL-β1 (IL-1β; LPS 10 mg/kg i.p. only) was 112.2 ± 3.143^***a and the “TGF-β1 immunohistochemical expression in lung” value (TGF-β1; LPS 10 mg/kg i.p. only) was “+ +”.

Source: publication PMC10907465 (Inflammopharmacology, 2023)
